Results from PMC5995653 (Journal of pharmacological and toxicological methods, 2018).
Read-outs that look alike come from different tables or passages of the source.

Columns and labels:
rSERT = rSERT (Rattus norvegicus, UniProt P31652); details: read-out: Ki, rSERT, synaptosomes; cited from earlier work
hSERT [1] = biological target: T1, hSERT (Homo sapiens, UniProt P31645); details: read-out: Reuptake inhibition activity IC50, hSERT, JAR cells
hSERT [2] = biological target: T1, hSERT; test: SERT reuptake inhibition in transfected hSERT-HEK293 cells; assay type: cell-based; details: unpublished results of the authors' group
hSERT [3] = biological target: T1, hSERT; details: read-out: Reuptake inhibition activity IC50, hSERT-HEK293 cells; cited from earlier work

T1 sequence (P31645 whole entry): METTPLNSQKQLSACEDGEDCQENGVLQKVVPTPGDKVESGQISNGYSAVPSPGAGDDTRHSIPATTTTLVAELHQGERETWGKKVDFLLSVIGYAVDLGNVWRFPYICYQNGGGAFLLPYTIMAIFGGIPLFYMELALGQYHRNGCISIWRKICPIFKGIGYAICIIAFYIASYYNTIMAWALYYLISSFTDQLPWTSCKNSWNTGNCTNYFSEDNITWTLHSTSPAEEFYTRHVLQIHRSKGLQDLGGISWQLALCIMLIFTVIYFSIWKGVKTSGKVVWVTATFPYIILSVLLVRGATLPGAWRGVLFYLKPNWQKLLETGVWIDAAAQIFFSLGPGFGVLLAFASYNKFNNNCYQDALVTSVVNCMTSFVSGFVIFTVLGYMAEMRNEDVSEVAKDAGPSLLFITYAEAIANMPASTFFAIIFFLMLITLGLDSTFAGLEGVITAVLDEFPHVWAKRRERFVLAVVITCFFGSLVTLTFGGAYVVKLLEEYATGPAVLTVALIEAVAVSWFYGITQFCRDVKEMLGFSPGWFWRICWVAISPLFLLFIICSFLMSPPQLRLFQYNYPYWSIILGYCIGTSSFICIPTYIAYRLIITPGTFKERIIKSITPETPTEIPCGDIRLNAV
Sequence of rSERT (P31652 whole entry): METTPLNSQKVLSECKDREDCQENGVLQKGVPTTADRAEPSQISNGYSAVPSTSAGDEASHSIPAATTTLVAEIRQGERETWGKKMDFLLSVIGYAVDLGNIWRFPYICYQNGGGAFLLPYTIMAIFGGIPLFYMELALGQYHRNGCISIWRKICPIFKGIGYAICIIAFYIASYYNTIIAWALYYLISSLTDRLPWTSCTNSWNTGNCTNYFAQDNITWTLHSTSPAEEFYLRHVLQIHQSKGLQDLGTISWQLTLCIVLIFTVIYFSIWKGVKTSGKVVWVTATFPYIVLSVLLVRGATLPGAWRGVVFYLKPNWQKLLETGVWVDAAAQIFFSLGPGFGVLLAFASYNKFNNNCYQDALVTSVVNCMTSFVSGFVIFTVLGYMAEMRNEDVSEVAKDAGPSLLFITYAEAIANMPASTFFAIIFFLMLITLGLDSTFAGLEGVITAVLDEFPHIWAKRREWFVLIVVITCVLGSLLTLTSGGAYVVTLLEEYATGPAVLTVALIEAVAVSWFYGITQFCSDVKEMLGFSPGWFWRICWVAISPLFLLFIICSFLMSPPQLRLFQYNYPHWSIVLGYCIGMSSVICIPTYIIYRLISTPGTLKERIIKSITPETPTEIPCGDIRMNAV

Row | SMILES | Ki (rSERT) [nM] | IC50 (hSERT [1]) [nM] | Activity in hSERT-HEK293 cells (in words) (hSERT [2]) | IC50 (hSERT [3]) [nM]
1 | CN1[C@H]2CC[C@@H]1[C@@H](C(=O)N1CCCC1)[C@@H](c1ccc(I)cc1)C2 [RTI-229] | 362 | 589 ± 42 | – | –
2 | Fc1ccc(C(OCCN2CCN(CCCc3ccccc3)CC2)c2ccc(F)cc2)cc1 [GBR12909] | – | – | inactive | –
3 | COC(=O)[C@H]1C(c2ccc(I)cc2)C[C@@H]2CC[C@H]1N2C (stereo partly drawn) [RTI-55] | 1 | 1.31 ± 0.1 | – | 0.51 ± 0.14
